Values joined by “and” are separate entries in the source; they are usually repeats but may differ in a detail not shown here. Equal entries are not always repeated. Toxic doses and inconclusive results are not listed. Rule as the data show it: active = T/C of 150% or more; inactive = T/C below 125%.
Tested on: L1210 leukemia ip in BDF1 mice, survival T/C
Test: NCI In Vivo Anticancer Drug Screen. Data for tumor model L1210 Leukemia (intraperitoneal) in B6D2F1 (BDF1) mice
Conditions: endpoint: mean survival time, higher = longer survival
In short: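 Survival endpoint. Drug-treated group vs vehicle group, expressed as T divided by C. Tumor passaged by transplantation.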

[1] = dose: 100.0 mg/kg/injection, schedule: Q04DX002 (ip), vehicle: gum acacia
[2] = dose: 200.0 mg/kg/injection, schedule: Q04DX002 (ip), vehicle: gum acacia
[3] = dose: 400.0 mg/kg/injection, schedule: Q04DX002 (ip), vehicle: gum acacia
[4] = dose: 50.0 mg/kg/injection, schedule: Q01DX009 (ip), vehicle: saline with Tween-80
[5] = dose: 100.0 mg/kg/injection, schedule: Q01DX009 (ip), vehicle: saline with Tween-80
[6] = dose: 200.0 mg/kg/injection, schedule: Q01DX009 (ip), vehicle: saline with Tween-80
[7] = dose: 100.0 mg/kg/injection, schedule: Q04DX002 (ip), vehicle: saline with Tween-80
[8] = dose: 200.0 mg/kg/injection, schedule: Q04DX002 (ip), vehicle: saline with Tween-80
[9] = dose: 400.0 mg/kg/injection, schedule: Q04DX002 (ip), vehicle: saline with Tween-80
[10] = dose: 100.0 mg/kg/injection, schedule: Q04DX003 (ip), vehicle: saline with Tween-80
[11] = dose: 200.0 mg/kg/injection, schedule: Q04DX003 (ip), vehicle: saline with Tween-80
[12] = dose: 400.0 mg/kg/injection, schedule: Q04DX003 (ip), vehicle: saline with Tween-80
[13] = dose: 400.0 mg/kg/injection, schedule: Q01DX009 (ip), vehicle: saline with Tween-80
[14] = dose: 100.0 mg/kg/injection, schedule: Q04DX003 (ip), vehicle: saline
[15] = dose: 200.0 mg/kg/injection, schedule: Q04DX003 (ip), vehicle: saline
[16] = dose: 100.0 mg/kg/injection, schedule: Q01DX001 (ip), vehicle: saline
[17] = dose: 200.0 mg/kg/injection, schedule: Q01DX001 (ip), vehicle: saline
[18] = dose: 400.0 mg/kg/injection, schedule: Q01DX001 (ip), vehicle: saline
[19] = dose: 50.0 mg/kg/injection, schedule: Q01DX001 (ip), vehicle: saline

Measured: T/C

COc1ccccc1/C=N\N/C(N)=N\N=C\c1ccccc1OC
inactive: dose: 15.0 mg/kg/injection, schedule: Q01DX Z (ip), vehicle: carboxymethylcellulose (CMC) 98 % of control | dose: 30.0 mg/kg/injection, schedule: Q01DX Z (ip), vehicle: carboxymethylcellulose (CMC) 103 % of control | dose: 60.0 mg/kg/injection, schedule: Q01DX Z (ip), vehicle: carboxymethylcellulose (CMC) 103 % of control and 117 % of control | dose: 120.0 mg/kg/injection, schedule: Q01DX Z (ip), vehicle: carboxymethylcellulose (CMC) 101 % of control and 117 % of control | dose: 240.0 mg/kg/injection, schedule: Q01DX Z (ip), vehicle: carboxymethylcellulose (CMC) 108 % of control | dose: 240.0 mg/kg/injection, schedule: Q01DX Z (oral), vehicle: carboxymethylcellulose (CMC) 97 % of control | dose: 480.0 mg/kg/injection, schedule: Q01DX Z (ip), vehicle: carboxymethylcellulose (CMC) 121 % of control | dose: 480.0 mg/kg/injection, schedule: Q01DX Z (oral), vehicle: carboxymethylcellulose (CMC) 105 % of control | dose: 960.0 mg/kg/injection, schedule: Q01DX Z (oral), vehicle: carboxymethylcellulose (CMC) 95 % of control | dose: 1920.0 mg/kg/injection, schedule: Q01DX Z (oral), vehicle: carboxymethylcellulose (CMC) 105 % of control

COP(=O)(O)Oc1ccccc1
inactive: dose: 87.5 mg/kg/injection, schedule: Q01DX009 (ip), vehicle: saline with Tween-80 100 % of control | dose: 175.0 mg/kg/injection, schedule: Q01DX009 (ip), vehicle: saline with Tween-80 100 % of control

CC(C)S.[Pb]
inactive: [1] 100 % of control | [2] 100 % of control | [3] 89 % of control

O=C(CNC(=O)Nc1ccc(Cl)c(Cl)c1)N/N=C/C=C/c1ccccc1
inactive: [4] 96 % of control | [5] 96 % of control | [6] 93 % of control

COc1ccc(-c2ccc(OC)cc2[N+](=O)[O-])c([N+](=O)[O-])c1
inactive: dose: 100.0 mg/kg/injection, schedule: Q01DX001 (ip), vehicle: carboxymethylcellulose (CMC) 100 % of control | dose: 200.0 mg/kg/injection, schedule: Q01DX001 (ip), vehicle: carboxymethylcellulose (CMC) 100 % of control | dose: 400.0 mg/kg/injection, schedule: Q01DX001 (ip), vehicle: carboxymethylcellulose (CMC) 102 % of control

O=C(O)c1cccnc1C(=O)Nc1cccc2ccccc12
inactive: [7] 105 % of control | [8] 105 % of control | [9] 105 % of control

CCOC(=O)Cc1cc(=O)[nH]n(-c2ccccc2)c1=O
inactive: [1] 100 % of control | [2] 89 % of control | [3] 96 % of control

CCCCCCCCNC(C)C1=C(O)c2ccccc2C(=O)C1=O (stereo not given)
inactive: dose: 100.0 mg/kg/injection, schedule: Q01DX001 (ip), vehicle: saline with Tween-80 89 % of control | dose: 200.0 mg/kg/injection, schedule: Q01DX001 (ip), vehicle: saline with Tween-80 86 % of control | dose: 400.0 mg/kg/injection, schedule: Q01DX001 (ip), vehicle: saline with Tween-80 86 % of control

CCOC(=O)/C(O)=C\c1n[n+]([O-])ccc1Cl
inactive: dose: 100.0 mg/kg/injection, schedule: Q04DX002 (ip), vehicle: Klucel (hydroxypropylcellulose) (HPC) 104 % of control | dose: 200.0 mg/kg/injection, schedule: Q04DX002 (ip), vehicle: Klucel (hydroxypropylcellulose) (HPC) 112 % of control | dose: 400.0 mg/kg/injection, schedule: Q04DX002 (ip), vehicle: Klucel (hydroxypropylcellulose) (HPC) 93 % of control

CCOC(=O)/C(C#N)=C/C(C)c1ccccc1 (stereo not given)
inactive: dose: 100.0 mg/kg/injection, schedule: Q01DX009 (ip), vehicle: saline 108 % of control | dose: 200.0 mg/kg/injection, schedule: Q01DX009 (ip), vehicle: saline 104 % of control | dose: 400.0 mg/kg/injection, schedule: Q01DX009 (ip), vehicle: saline 95 % of control

CC(C)(C(=O)O)c1ccc(-c2ccccc2)cc1
inactive: [10] 102 % of control | [11] 97 % of control | [12] 106 % of control

C=C1C(=O)OC2C1CCC(=C)C1CC(O)C(=C)C12 (stereo not given)
inactive: dose: 67.0 mg/kg/injection, schedule: Q01DX009 (ip), vehicle: saline with Tween-80 103 % of control | [5] 105 % of control

CCOC(=O)CCC(NC(=O)c1ccc(N(C)S(=O)(=O)c2ccc(C)cc2)c2ccccc12)C(=O)OCC (stereo not given)
inactive: [5] 108 % of control | [10] 97 % of control | [6] 94 % of control | [11] 100 % of control | [13] 92 % of control | [12] 100 % of control

COCn1cnc([N+](=O)[O-])c1Br
inactive: dose: 100.0 mg/kg/injection, schedule: Q01DX001 (ip), vehicle: acetone 101 % of control | [5] 96 % of control | dose: 200.0 mg/kg/injection, schedule: Q01DX001 (ip), vehicle: acetone 90 % of control | [6] 93 % of control | dose: 400.0 mg/kg/injection, schedule: Q01DX001 (ip), vehicle: acetone 100 % of control | [13] 86 % of control

Cc1ccc(S(=O)(=O)NC(=O)NCCCS(C)=O)cc1 (stereo not given)
inactive: [10] 100 % of control | [11] 102 % of control | [12] 100 % of control

CCOC(=O)CCc1ccc2c(c1)OCO2
inactive: [14] 103 % of control | [15] 101 % of control | dose: 400.0 mg/kg/injection, schedule: Q04DX003 (ip), vehicle: saline 95 % of control

Nc1ccc2ncccc2c1 (tested in a mixture with another compound)
inactive: dose: 100.0 mg/kg/injection, schedule: Q04DX003 (ip), vehicle: gum acacia 100 % of control | dose: 200.0 mg/kg/injection, schedule: Q04DX003 (ip), vehicle: gum acacia 91 % of control | dose: 400.0 mg/kg/injection, schedule: Q04DX003 (ip), vehicle: gum acacia 100 % of control

Cn1cnc([N+](=O)[O-])c1[Se]c1ncnc2nc[nH]c12
inactive: dose: 12.5 mg/kg/injection, schedule: Q01DX005 (ip), vehicle: other 89 % of control | dose: 50.0 mg/kg/injection, schedule: Q01DX005 (ip), vehicle: other 87 % of control

O=C1CSC2=NCCN12
inactive: [16] 99 % of control | [14] 93 % of control | [17] 99 % of control | [15] 98 % of control | [18] 92 % of control

Cc1ccc(CN(C)C)c(C(O)c2ccccc2)c1 (stereo not given)
inactive: [19] 96 % of control | [16] 96 % of control

COC1OC(C[N+](=O)[O-])C(OC(C)=O)C(OC(C)=O)C1OC(C)=O (stereo not given)
inactive: [7] 102 % of control | [8] 109 % of control | [9] 95 % of control

O=C(O)C1CCCCC1C(=O)Nc1cccc2ccccc12 (stereo not given)
inactive: dose: 100.0 mg/kg/injection, schedule: Q01DX009 (ip), vehicle: Klucel (hydroxypropylcellulose) (HPC) 105 % of control | dose: 200.0 mg/kg/injection, schedule: Q01DX009 (ip), vehicle: Klucel (hydroxypropylcellulose) (HPC) 96 % of control | dose: 400.0 mg/kg/injection, schedule: Q01DX009 (ip), vehicle: Klucel (hydroxypropylcellulose) (HPC) 93 % of control

COc1ccc(/C=N/N=c2\[nH][nH]/c(=N\N=C\c3ccc(OC)c4ccccc34)c3ccccc23)c2ccccc12
inactive: [19] 100 % of control | [16] 100 % of control | [17] 103 % of control | [18] 105 % of control

COc1cccc(NC(=O)Nc2ccccc2C(F)(F)F)c1
inactive: dose: 6.25 mg/kg/injection, schedule: Q01DX009 (ip), vehicle: saline with Tween-80 92 % of control | dose: 12.5 mg/kg/injection, schedule: Q01DX009 (ip), vehicle: saline with Tween-80 92 % of control | dose: 25.0 mg/kg/injection, schedule: Q01DX009 (ip), vehicle: saline with Tween-80 90 % of control | [4] 90 % of control | [5] 94 % of control

CCNC1(c2cccs2)CCCCC1=O (stereo not given)
inactive: dose: 20.0 mg/kg/injection, schedule: Q04DX003 (ip), vehicle: saline 102 % of control | dose: 40.0 mg/kg/injection, schedule: Q04DX003 (ip), vehicle: saline 104 % of control | dose: 80.0 mg/kg/injection, schedule: Q04DX003 (ip), vehicle: saline 102 % of control

c1cc(CCc2ccncc2)ccn1
inactive: dose: 25.0 mg/kg/injection, schedule: Q04DX003 (ip), vehicle: saline 99 % of control | dose: 50.0 mg/kg/injection, schedule: Q04DX003 (ip), vehicle: saline 99 % of control | [14] 109 % of control and 89 % of control

Nc1cccc2c1C(=O)c1cc(Cl)c(Cl)cc1C2=O
inactive: [4] 104 % of control | [5] 97 % of control | [6] 89 % of control
